From ChEMBL document CHEMBL1201862, “PubChem BioAssay data set” (2004)
Activity calls are given as the source filed them.

Key:
[1] = molecular target: T1, Corticotropin-releasing factor receptor 2/Corticotropin-releasing factor-binding protein (Homo sapiens, UniProt P24387+Q13324); assay: activators of CRF receptor 2 with binding protein – uHTS hits, confirmation (AID 602473); assay type: functional; conditions: read-out: EC50_Mean
T1 sequence (Q13324 whole entry): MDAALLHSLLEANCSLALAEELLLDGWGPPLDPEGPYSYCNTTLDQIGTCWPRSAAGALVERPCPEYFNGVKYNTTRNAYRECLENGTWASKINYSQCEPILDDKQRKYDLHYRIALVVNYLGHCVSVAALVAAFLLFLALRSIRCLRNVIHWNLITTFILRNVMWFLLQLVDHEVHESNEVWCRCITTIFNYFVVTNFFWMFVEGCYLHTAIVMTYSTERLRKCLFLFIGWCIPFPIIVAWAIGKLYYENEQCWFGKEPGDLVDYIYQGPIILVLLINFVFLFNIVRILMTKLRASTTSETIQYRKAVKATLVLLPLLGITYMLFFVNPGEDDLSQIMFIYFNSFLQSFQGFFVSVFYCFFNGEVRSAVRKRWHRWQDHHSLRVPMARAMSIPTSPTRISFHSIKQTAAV
T1 sequence (P24387 whole entry): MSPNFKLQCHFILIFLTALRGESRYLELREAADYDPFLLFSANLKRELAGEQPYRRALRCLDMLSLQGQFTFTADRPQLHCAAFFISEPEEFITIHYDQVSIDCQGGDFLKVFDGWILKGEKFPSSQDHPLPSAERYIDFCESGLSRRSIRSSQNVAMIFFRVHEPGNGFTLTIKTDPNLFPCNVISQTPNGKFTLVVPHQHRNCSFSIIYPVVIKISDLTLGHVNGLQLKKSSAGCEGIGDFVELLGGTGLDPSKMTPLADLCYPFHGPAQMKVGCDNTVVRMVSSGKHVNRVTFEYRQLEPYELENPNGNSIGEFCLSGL

[2] = molecular target: T1, Corticotropin-releasing factor receptor 2/Corticotropin-releasing factor-binding protein; assay: Dose Response confirmation of uHTS hits for small molecule antagonists of the CRF-binding protein and CRF-R2 receptor complex.; assay type: functional; conditions: read-out: IC50_Mean
[3] = molecular target: Large T antigen (Simian virus 40, UniProt P03070); assay type: functional, Betapolyomavirus macacae;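 further: Confirmatory-stage PubChem screen for compounds that inhibit SV40 T antigen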
[4] = molecular target: T2, Ubiquitin-conjugating enzyme E2 N (Homo sapiens, UniProt P61088); assay type: functional;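 further: Dose-response confirmation in a TR-FRET assay detecting UBC13-driven polyubiquitin chain formation, inhibition measured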
T2 sequence (P61088 whole entry): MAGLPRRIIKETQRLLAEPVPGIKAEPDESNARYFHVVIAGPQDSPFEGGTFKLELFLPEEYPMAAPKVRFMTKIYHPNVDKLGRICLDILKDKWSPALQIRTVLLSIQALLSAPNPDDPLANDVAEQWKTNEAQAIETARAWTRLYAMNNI

[5] = cells; assay type: functional, cell-based
[6] = cells; assay type: functional, cell-based; remark: listed apart in the source
[7] = molecular target: T3, Calpain-2 catalytic subunit (Sus scrofa, UniProt P43367); assay: pig calpain II inhibitor potency, dose response, biochemical, fluorogenic peptide substrate (AID 1420); assay type: functional
T3 sequence (P43367 whole entry): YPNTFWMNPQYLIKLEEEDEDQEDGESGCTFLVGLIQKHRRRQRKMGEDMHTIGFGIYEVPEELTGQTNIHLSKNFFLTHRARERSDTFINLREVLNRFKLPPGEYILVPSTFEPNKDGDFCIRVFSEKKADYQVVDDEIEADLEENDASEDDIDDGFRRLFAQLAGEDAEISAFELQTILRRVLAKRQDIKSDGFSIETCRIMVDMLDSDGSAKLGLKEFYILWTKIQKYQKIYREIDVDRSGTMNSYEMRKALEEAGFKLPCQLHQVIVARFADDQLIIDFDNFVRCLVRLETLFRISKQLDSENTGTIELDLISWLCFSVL

[8] = test system: BJ; assay: cytotoxicity toward BJ-TERT-LT-ST fibroblasts, dose response, cell-based, RAS-independent, luminescence (AID 1935); assay type: functional; conditions: Homo sapiens;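 further: BJ fibroblasts immortalized with TERT plus LT and ST oncogenes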
[9] = test system: BJ; assay: cells; assay type: functional, cell-based; conditions: Homo sapiens
[10] = cytotoxicity toward DRD oncogenic fibroblasts, dose response, cell-based, non-viral oncogenic, luminescence (AID 1934); assay type: functional; conditions: Homo sapiens
[11] = test system: BJ; assay: cytotoxicity toward BJ-TERT fibroblasts, dose response, cell-based, RAS-independent, luminescence (AID 1933); assay type: functional; conditions: Homo sapiens
[12] = HEp-2 cell cytotoxicity, dose response, cytotoxicity control for RSV inhibitor project, HTS (AID 2410); assay type: functional; conditions: human respiratory syncytial virus
[13] = molecular target: Paired box protein Pax-8 (Homo sapiens, UniProt Q06710); assay: inhibitors of PAX8-driven TPO luciferase reporter, dose response, RMG-I cells, cherry-pick (AID 687027); assay type: functional, cell-based;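 further: luciferase reporter driven by Pax8 target thyroperoxidase promoter measured by SteadyGlo luminescence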
[14] = microbe, parasite or virus in culture; assay type: functional; conditions: Mycobacterium tuberculosis
[15] = NIH:OVCAR-3 ovarian cancer cell cytotoxicity, dose response, PAX8 inhibitor project, plate reader, dry powder samples (AID 743044); assay type: functional, cell-based
[16] = IGROV1 ovarian cancer cell cytotoxicity, dose response, PAX8 inhibitor project, plate reader, dry powder samples (AID 743043); assay type: functional, cell-based; conditions: IGROV-1
[17] = molecular target: Cytochrome P450 2D6 (Homo sapiens, UniProt P10635);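 further: CYP2D6 member of a cytochrome P450 panel assay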
[18] = molecular target: T4, Leucine aminopeptidase (Plasmodium falciparum 3D7, UniProt Q8IL11); assay: P. falciparum M17LAP inhibitors, primary screen, biochemical, fluorogenic H-Leu-NHMec substrate, 1536-well (AID 1619); assay type: functional
T4 sequence (Q8IL11 whole entry): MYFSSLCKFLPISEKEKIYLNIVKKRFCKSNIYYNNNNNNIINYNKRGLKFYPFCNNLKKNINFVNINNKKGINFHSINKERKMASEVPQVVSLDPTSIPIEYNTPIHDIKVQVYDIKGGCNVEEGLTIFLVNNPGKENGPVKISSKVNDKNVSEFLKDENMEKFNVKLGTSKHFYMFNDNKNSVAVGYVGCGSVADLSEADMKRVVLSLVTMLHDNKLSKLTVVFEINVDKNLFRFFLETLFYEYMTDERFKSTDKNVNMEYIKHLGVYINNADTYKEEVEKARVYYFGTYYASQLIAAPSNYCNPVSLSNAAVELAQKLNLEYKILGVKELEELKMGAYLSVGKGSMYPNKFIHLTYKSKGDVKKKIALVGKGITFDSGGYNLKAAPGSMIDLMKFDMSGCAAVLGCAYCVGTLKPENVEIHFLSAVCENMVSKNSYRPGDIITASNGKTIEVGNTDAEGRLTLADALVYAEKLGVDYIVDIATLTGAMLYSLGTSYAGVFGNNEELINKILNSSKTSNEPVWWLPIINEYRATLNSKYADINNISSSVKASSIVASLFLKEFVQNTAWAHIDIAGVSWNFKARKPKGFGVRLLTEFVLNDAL

[19] = molecular target: Cytochrome P450 2C9 (Homo sapiens, UniProt P11712)
Cytochrome P450 2C9, sequence (P11712 whole entry): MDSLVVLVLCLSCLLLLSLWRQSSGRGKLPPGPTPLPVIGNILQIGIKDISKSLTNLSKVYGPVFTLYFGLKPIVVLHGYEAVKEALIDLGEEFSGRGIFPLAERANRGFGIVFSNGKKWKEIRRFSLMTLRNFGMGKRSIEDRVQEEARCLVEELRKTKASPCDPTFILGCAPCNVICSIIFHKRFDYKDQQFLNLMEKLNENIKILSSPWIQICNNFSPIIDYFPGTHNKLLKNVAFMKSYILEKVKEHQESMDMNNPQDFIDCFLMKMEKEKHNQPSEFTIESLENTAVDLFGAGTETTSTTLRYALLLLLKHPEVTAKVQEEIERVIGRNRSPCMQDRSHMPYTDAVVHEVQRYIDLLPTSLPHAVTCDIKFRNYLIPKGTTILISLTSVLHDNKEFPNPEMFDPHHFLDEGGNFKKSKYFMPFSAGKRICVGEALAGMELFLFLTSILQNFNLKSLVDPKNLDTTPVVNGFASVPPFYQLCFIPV

Paired box protein Pax-8, sequence (Q06710 whole entry): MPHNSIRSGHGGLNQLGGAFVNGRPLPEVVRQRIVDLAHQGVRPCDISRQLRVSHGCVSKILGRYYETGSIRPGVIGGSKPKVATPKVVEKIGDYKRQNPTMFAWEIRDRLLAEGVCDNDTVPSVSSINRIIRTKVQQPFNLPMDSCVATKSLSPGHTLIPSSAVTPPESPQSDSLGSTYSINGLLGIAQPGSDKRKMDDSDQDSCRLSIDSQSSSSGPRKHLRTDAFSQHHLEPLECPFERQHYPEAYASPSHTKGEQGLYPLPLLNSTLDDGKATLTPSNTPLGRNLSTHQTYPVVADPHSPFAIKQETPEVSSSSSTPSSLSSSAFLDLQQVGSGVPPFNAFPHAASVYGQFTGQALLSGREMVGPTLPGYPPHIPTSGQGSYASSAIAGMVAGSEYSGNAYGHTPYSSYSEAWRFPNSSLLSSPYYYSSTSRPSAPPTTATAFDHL
Large T antigen, sequence (P03070 whole entry): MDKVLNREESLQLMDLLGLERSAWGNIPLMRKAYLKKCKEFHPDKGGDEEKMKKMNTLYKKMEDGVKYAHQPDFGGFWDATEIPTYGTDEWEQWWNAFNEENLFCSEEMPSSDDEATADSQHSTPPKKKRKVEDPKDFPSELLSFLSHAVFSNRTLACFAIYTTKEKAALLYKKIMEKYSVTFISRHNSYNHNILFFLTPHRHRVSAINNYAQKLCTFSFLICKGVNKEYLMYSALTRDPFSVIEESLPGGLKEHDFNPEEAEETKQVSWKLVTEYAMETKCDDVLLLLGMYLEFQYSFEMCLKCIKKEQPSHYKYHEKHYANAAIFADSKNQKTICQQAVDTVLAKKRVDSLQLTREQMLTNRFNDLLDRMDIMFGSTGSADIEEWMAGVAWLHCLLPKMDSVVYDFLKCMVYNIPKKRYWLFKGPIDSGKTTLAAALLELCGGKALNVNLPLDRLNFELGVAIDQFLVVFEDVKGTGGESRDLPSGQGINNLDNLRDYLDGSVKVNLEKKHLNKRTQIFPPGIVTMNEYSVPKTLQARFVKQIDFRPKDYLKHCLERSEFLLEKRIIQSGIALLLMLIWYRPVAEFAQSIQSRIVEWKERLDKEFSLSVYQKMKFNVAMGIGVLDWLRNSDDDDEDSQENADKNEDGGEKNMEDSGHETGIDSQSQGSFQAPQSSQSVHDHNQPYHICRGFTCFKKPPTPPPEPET
Cytochrome P450 2D6, sequence (P10635 whole entry): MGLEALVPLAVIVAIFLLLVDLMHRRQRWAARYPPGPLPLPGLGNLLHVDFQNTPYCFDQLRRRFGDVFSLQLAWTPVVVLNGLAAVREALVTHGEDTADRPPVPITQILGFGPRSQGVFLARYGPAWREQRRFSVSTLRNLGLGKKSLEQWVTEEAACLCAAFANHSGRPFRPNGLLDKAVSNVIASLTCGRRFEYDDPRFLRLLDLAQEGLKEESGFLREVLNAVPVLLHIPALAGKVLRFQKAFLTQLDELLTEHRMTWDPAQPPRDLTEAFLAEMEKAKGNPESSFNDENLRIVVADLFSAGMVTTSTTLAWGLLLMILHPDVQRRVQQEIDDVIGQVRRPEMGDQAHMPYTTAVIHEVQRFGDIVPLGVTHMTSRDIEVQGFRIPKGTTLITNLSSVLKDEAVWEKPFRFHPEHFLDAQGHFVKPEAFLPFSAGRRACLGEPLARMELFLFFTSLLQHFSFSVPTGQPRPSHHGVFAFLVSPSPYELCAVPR

With `COc1ccc(CN2CCS(=O)(=O)CC2)cc1OC` the EC50 [1] was > 53 µM (inactive) and the IC50 [2] was > 47.1 µM (inactive).

In the case of `CC1=NC(=S)NC(c2cccs2)/C1=C(\O)OCC(C)C` (configuration not stated), the IC50 [3] is reported as 51.4 µM (active).

In the case of `CCn1c(O)c(N=NC(S)=NCC2CCCO2)c2ccccc21` (configuration not stated), the IC50 [4] is reported as > 20 µM (inactive).

For `CC(C)Cn1cc(C(=O)NC2CCN(Cc3ccccc3)CC2)c2c3ccccc3n(C)c2c1=O`, the IC50 [4] was > 20 µM (inactive).

In the case of `O=C(OCC(=O)N1CCN(c2ccccc2)CC1)c1ccccn1`, the EC50 [1] is reported as > 53 µM (inactive) and the IC50 [2] is reported as > 47.1 µM (inactive).

For `CC(=O)Nc1ccc(OC(=O)C(CCS(C)(=O)=O)N2C(=O)c3ccccc3C2=O)cc1` (configuration not stated), the IC50 [3] was 8.46 µM (active).

In the case of `Cc1ccc(C)c(OCC(=O)O/N=C(\N)c2cccc([N+](=O)[O-])c2)c1`, the EC50 [5] is reported as > 350 µM (not active) and the EC50 [6] is reported as > 350 µM (not active).

For `Cc1ccc2nc(Cl)c(/C=N/Nc3ccc(C(=O)O)cc3)cc2c1`, the IC50 [7] was 4.02 µM (not active).

For `O=C(CCN1C(=O)/C(=C/c2cccc(Br)c2)SC1=S)Nc1cccnc1`, the EC50 [8] was > 150 µM (not active), the EC50 [9] was > 150 µM (not active) and the EC50 [10] was 18.7 µM (active). For the same compound, the EC50 [11] was 7.86 µM (inconclusive).

With `CCCOc1ccc(OCCN2CCCC(C)C2)cc1` (configuration not stated) the IC50 [7] was < 0.4 µM (not active).

With `Cc1ccc(C2CC(c3cccs3)=NN2C(=O)c2ccco2)o1` (configuration not stated) the IC50 [7] was > 50 µM (not active).

With `Cc1ccc(S(=O)(=O)N2CC(C)N(C(=O)N3CCOCC3)C2C)cc1` (configuration not stated) the EC50 [5] was > 350 µM (not active) and the EC50 [6] was > 350 µM (not active).

With `CCn1cc(C(=O)NCC(OC)OC)c(=O)c2cc(S(=O)(=O)N3CCC(C)CC3)ccc21` the CC50 [12] was 11.1 µM (active), the EC50 [5] was > 350 µM (not active) and the EC50 [6] was > 350 µM (not active).

With `Cc1ccc(C(=O)CSc2ccc(-c3ccncc3)nn2)cc1` the EC50 [5] was > 350 µM (not active) and the EC50 [6] was > 350 µM (not active).

In the case of `CCCC[C@@H](CNC)NC[C@H](NCCCCC1CCCCC1)C(C)C`, the IC50 [4] is reported as > 20 µM (inactive).

With `O=C(CCCN1C(=O)c2ccccc2C1=O)N1CCC(c2ccccc2)C1` (configuration not stated) the IC50 [7] was 25.1 µM (not active).

For `CC(C)=CCSc1nnc([C@@H](N)Cc2c[nH]c3ccccc23)o1`, the EC50 [5] was > 350 µM (not active) and the EC50 [6] was > 350 µM (not active).

With `O=C(CCCN1C(=O)/C(=C/c2cccc(Br)c2)SC1=S)Nc1cccnc1` the AC50 [13] was 8.92 µM (active), the EC50 [8] was 17.2 µM (active) and the EC50 [9] was 25.3 µM (active). For the same compound, the EC50 [10] was 9.68 µM (active) and the EC50 [11] was 3.12 µM (active).

For `Cc1cc(NC(=O)CCl)no1`, the EC50 [8] was > 75 µM (not active), the EC50 [9] was > 150 µM (not active) and the EC50 [10] was 21.1 µM (active). The CC50 [14] was 19.6 µM (active) and the EC50 [11] was 18 µM (active).

For `CCOC(=O)C1CCCN(c2c(NCCCN(C)c3ccccc3)c(=O)c2=O)C1` (configuration not stated), the IC50 [7] was > 50 µM (not active).

For `O=C(COC(=O)C1CCN(S(=O)(=O)c2ccccc2)CC1)NC(=O)c1ccc(OC(F)F)cc1`, the EC50 [1] was > 53 µM (inactive) and the IC50 [2] was > 47.1 µM (inactive).

In the case of `CC1CN(C(c2ccco2)c2sc3ncnn3c2O)CC(C)O1` (configuration not stated), the EC50 [1] is reported as > 53 µM (inactive) and the IC50 [2] is reported as > 47.1 µM (inactive).

In the case of `Cc1ccnc(NS(=O)(=O)c2cc([N+](=O)[O-])ccc2C)c1`, the EC50 [5] is reported as > 350 µM (not active) and the EC50 [6] is reported as > 350 µM (not active).

In the case of `Cc1ccc(-c2noc(CSc3nnc(Cc4ccccc4)n3-c3cccc(C)c3)n2)cc1`, the IC50 [7] is reported as 5.35 µM (not active).

For `C[C@H](CO)N1C[C@H](C)[C@H](CN(C)Cc2ccc(Cl)c(Cl)c2)OCCCC[C@H](C)Oc2ccc(NS(=O)(=O)c3ccc(F)cc3)cc2C1=O`, the AC50 [13] was 4.85 µM (active) and the AC50 [15] was 48.3 µM (active).

With `CCN(CC)S(=O)(=O)c1cc(NS(=O)(=O)c2ccccc2)ccc1C` the IC50 [7] was > 50 µM (not active).

For `CCc1ccc(N(C(=O)c2snc(C(N)=O)c2N)C(C(=O)NC2CCCC2)c2ccco2)cc1` (configuration not stated), the IC50 [4] was > 20 µM (inactive).

With `CSc1ncccc1C(=O)N(C)CC(=O)Nc1cccc(F)c1` the EC50 [1] was > 53 µM (inactive) and the IC50 [2] was > 47.1 µM (inactive).

In the case of `C[C@H](CO)N1C[C@H](C)[C@H](CN(C)CC2CCCCC2)OCCCC[C@H](C)Oc2ccc(NC(=O)Nc3ccccc3)cc2C1=O`, the AC50 [13] is reported as 14.2 µM (active), the AC50 [16] is reported as 38.2 µM (active) and the AC50 [15] is reported as 25 µM (active).

In the case of `O=C(O)c1cccc2c1C(=O)N(Cc1ccccc1)C2`, the EC50 [1] is reported as > 53 µM (inactive) and the IC50 [2] is reported as > 47.1 µM (inactive).

For `NC(=O)COc1ncn(-c2ccccc2)n1`, the EC50 [1] was > 53 µM (inactive) and the IC50 [2] was > 47.1 µM (inactive).

For `O=C(CN1C(=O)c2ccccc2S1(=O)=O)Nc1ccccc1`, the AC50 [17] was 17.8 µM (inconclusive), the IC50 [18] was 24.6 µM (active) and the AC50 [19] was 12.6 µM (inconclusive).
